Assay results taken from US20090263397A1, “Combination anti-cancer therapy” (priority 2007, published 2009).
“And” between values parts separate entries of the source, which are not always exact repeats. Identical values can stand only once. “Also recorded” adds a separate entry of the source.

How the values were obtained:
IR = assay: Proteome Profiler RTK capture array, pIR in A673; format: cell-based, human; settings: for phosphorylation of IR, single agent: OSI-906 3 μM, Doxorubicin 500 nM, MAB391 10 ug/ml
Procedure: (§1) Effect of OSI-906 (3 μM), Doxorubicin (500 nM), the combination of OSI-906+ doxorubicin, MAB391 (10 ug/ml), and the combination of MAB391+ doxorubicin on the phosphorylation states for IR and IGF-1R. Phosphorylation of IR and IGF-1R was realized using the Proteome Profiler™ RTK capture Array (R & D Systems).
(§2) Proteome profiler arrays housing 42 different RTKs were purchased from R&D systems (Minneapolis, Minn.) and processed according to the manufacturer's protocol. RTKs included on the array include: HER1, HER2, HER3, HER4, FGFR1, FGFR2a, FGFR3, FGFR4, IR, IGF-1R, Ax1, Dtk, Mer, HGFR, MSPR, PDGFRα, PDGFRβ, SCFR, Flt-3, M-CSFR, c-Ret, ROR1, ROR2, Tie-1, Tie-2, TrkA, TrkB, TrkC, VEGFR1, VEGFR2, VEGFR3, MuSK, EphA1, EphA2, EphA3, EphA4, EphA6, EphA7, EphB1, EphB2, EphB4, EphB6. This array was used as an RTK capture assay for determining pIGF-1R levels.

[1] = system: Akt phosphorylation (pAkt-S473); assay: Western blotting of Akt phosphorylation, MDA-MB-231
IGF-1R [2] = assay: Proteome Profiler RTK capture array, pIGF-1R in A673; settings: for phosphorylation of IGF-1R, single agent: OSI-906 3 μM, Doxorubicin 500 nM, MAB391 10 ug/ml
Procedure: as §1, §2

Erk = assay: Western blotting of Erk phosphorylation, A673; settings: 24 hour; for MAPK (Erk) pathway activity / activation state, single agent: OSI-906 3 uM, Doxorubicin 500nM or 1 μM
SK-ES-1 tumor cells [3] = assay: Caspase 3/7 Glo apoptosis assay, SK-ES-1; format: cell-based, human; settings: in the presence of 1 μM doxorubicin, 24 hours
Procedure: Effect of varying concentrations of OSI-906 (0, 300 nM, 1 μM, 3 μM, or 5 μM) on the induction of apoptosis for SK-ES-1 tumor cells, in the presence or absence of 1 μM doxorubicin. Apoptosis was determined by measuring caspase 3/7 activity (Caspase GlO™, Promega), and measurements were captured 24 hours after dosing. Measurement of apoptosis: Induction of apoptosis as measured by increased Caspase 3/7 activity was determined using the Caspase 3/7 Glo assay (Promega Corporation, Madison, Wis.). Cell lines were seeded at a density of 3000 cells per well in a 96-well plate. 24 hours after plating cells were dosed with varying concentrations of drug, either as a single agent or in combination. The signal for Caspase 3/7 Glo was determined 24 hours after dosing. The caspase 3/7 activity was normalized to cell number per well, using a parallel plate treated with Cell Titer Glo (Promega Corporation, Madison, Wis.). Signal for each well was normalized using the following formula: Caspase 3/7 Glo luminescence units/Cell Titer Glo fraction of DMSO control.

H460 tumor cells [4] = assay: Caspase 3/7 Glo apoptosis assay, H460; format: cell-based, human; settings: 24 hours
Procedure: (§3) The combination of varying concentrations of OSI-906 (30 nM-3 μM) with 3 nM Taxol on the induction of apoptosis at 24 hours post dosing (Caspase GlO™, Promega) was determined for a panel of 5 NSCLC tumor cell lines (H460, H292, H322, H358, and Calu6).
A. Effect of varying concentrations of OSI-906, alone or in the presence of 12 nM Taxol, on apoptosis for H460 tumor cells. Apoptosis was measured 24 hours after dosing and determined by caspase 3/7 activity (Caspase GlO™, Promega). […] The dotted line represents the theoretical expectation for additivity and was calculated using the Bliss model for additivity.
(§4) Measurement of apoptosis: Induction of apoptosis as measured by increased Caspase 3/7 activity was determined using the Caspase 3/7 Glo assay (Promega Corporation, Madison, Wis.). Cell lines were seeded at a density of 3000 cells per well in a 96-well plate. 24 hours after plating cells were dosed with varying concentrations of drug, either as a single agent or in combination. The signal for Caspase 3/7 Glo was determined 24 hours after dosing. The caspase 3/7 activity was normalized to cell number per well, using a parallel plate treated with Cell Titer Glo (Promega Corporation, Madison, Wis.). Signal for each well was normalized using the following formula: Caspase 3/7 Glo luminescence units/Cell Titer Glo fraction of DMSO control.

Akt [5] = assay: Western blotting of Akt phosphorylation, A673; settings: 24 hour; for Akt pathway activity / activation state, single agent: OSI-906 3 uM, Doxorubicin 500nM or 1 μM
MDA-1186 tumor cells = assay: Caspase 3/7 Glo apoptosis assay, MDA-1186; format: cell-based, human
Procedure: The effect of varying concentrations of OSI-906 (0, 0.3 nM, 1 uM, 3 μM, and 5 μM) on apoptosis in the presence or absence of Taxol (10 nM) or cisplatin (50 μM) for the MDA-1186 SCCHN tumor cell line. Apoptosis measurements were determined by measuring caspase 3/7 activity (Caspase Glo, Promega) and were captured 24 and 48 hours after dosing.
as §4

H358 tumor cells = assay: Caspase 3/7 Glo apoptosis assay, H358; format: cell-based, human; settings: Taxol 3 nM, 24 hours
Procedure: as §3
The effect of varying concentrations of OSI-906 (0, 0.3 nM, 1 μM, 3 μM, and 5 μM) on apoptosis in the presence or absence of Taxol (3 nM) for H292 and H358 NSCLC tumor cell lines. Apoptosis measurements were determined by measuring caspase 3/7 activity (Caspase GlO™, Promega) and were captured 24 hours after dosing.
as §4

A673 tumor cells [6] = assay: Caspase 3/7 Glo apoptosis assay, A673; format: cell-based, human; settings: in the presence of doxorubicin (333 nM or 1 uM), listed as OSI-906
Procedure: FIG. 3: OSI-906 synergizes with doxorubicin to inhibit cell growth and survival in A673 ES (Ewing's Sarcoma) tumor cells. A. Effect of varying concentrations of doxorubicin, in the presence and absence of 5 μM OSI-906, on the proliferation of A673 tumor cells. Proliferation data were collected 48 hours after dosing and realized using the Cell Titer Glo™ assay (Promega). The dotted line in the plot represents the calculated theoretical expectation if the combination was additive in nature and was determined using the Bliss model for additivity. B. Effect of varying concentrations of OSI-906 (0, 300 nM, and 1 μM) on the induction of apoptosis for A673 tumor cells, in the presence or absence of 333 nM doxorubicin. Apoptosis was determined by measuring caspase 3/7 activity (Caspase GlO™, Promega), and measurements were captured 48 hours after dosing.
FIG. 5: OSI-906 has the potential to promote greater synergy with doxorubicin in ES tumor cells than neutralizing IGF-1R antibodies. Effect of varying concentrations of OSI-906 (0, 300 nM, 1 μM, and 3 μM) or the IGF-1R neutralizing antibody α-IR3 (10 ug/ml) on the induction of apoptosis for A673 tumor cells, in the presence or absence of 333 nM or 1 uM doxorubicin. Apoptosis was determined by measuring caspase 3/7 activity (Caspase GlO™, Promega), and measurements were captured 24 hours after dosing.

SK-ES-1 tumor cells [7] = assay: Cell Titer Glo overall cell growth, SK-ES-1; format: cell-based, human
Procedure: Measurement of Cell Proliferation: Cell proliferation was determined using the Cell Titer Glo assay (Promega Corporation, Madison, Wis.). […] Using parallel replicate plates, the signal for Cell Titer Glo was determined 24 hours after dosing.

MDA-MB-231 cells = assay: Caspase 3/7 Glo apoptosis assay, MDA-MB-231; format: cell-based, human; settings: 24 hours
Procedure: Apoptosis measurements were captured 24 hours after dosing, and apoptosis was assayed by measurement of caspase 3/7 activity. Measurement of apoptosis: Induction of apoptosis as measured by increased Caspase 3/7 activity was determined using the Caspase 3/7 Glo assay (Promega Corporation, Madison, Wis.). Cell lines were seeded at a density of 3000 cells per well in a 96-well plate. 24 hours after plating cells were dosed with varying concentrations of drug, either as a single agent or in combination. The signal for Caspase 3/7 Glo was determined 24 hours after dosing. The caspase 3/7 activity was normalized to cell number per well, using a parallel plate treated with Cell Titer Glo (Promega Corporation, Madison, Wis.). Signal for each well was normalized using the following formula: Caspase 3/7 Glo luminescence units/Cell Titer Glo fraction of DMSO control.

A673 tumor cells [8] = assay: Cell Titer Glo overall cell growth, A673; format: cell-based, human; settings: 5 μM OSI-906, 48 hours, versus Bliss additivity
Procedure: A. Effect of varying concentrations of doxorubicin, in the presence and absence of 5 μM OSI-906, on the proliferation of A673 tumor cells. Proliferation data were collected 48 hours after dosing and realized using the Cell Titer Glo™ assay (Promega). The dotted line in the plot represents the calculated theoretical expectation if the combination was additive in nature and was determined using the Bliss model for additivity. […] Measurement of Cell Proliferation: Cell proliferation was determined using the Cell Titer Glo assay (Promega Corporation, Madison, Wis.). Tumor cells were seeded at a density of 3000 cells per well in a 96-well plate. 24 hours after plating cells were dosed with varying concentrations of drug, either as a single agent or in combination. Using parallel replicate plates, the signal for Cell Titer Glo was determined 24 hours after dosing.

H292 tumor cells = assay: Caspase 3/7 Glo apoptosis assay, H292; format: cell-based, human; settings: OSI-906 30 nM-3 μM with 50 uM cisplatin, 24 hours, compared with single agents
Procedure: The combination of varying concentrations of OSI-906 (30 nM-3 μM) with 50 uM cisplatin on the induction of apoptosis at 24 hours post dosing (Caspase Glo, Promega) was determined for a panel of 5 NSCLC tumor cell lines (H460, H292, H322, H358, and Calu6). The fold induction in apoptosis greater than the sums achieved by the single agents is noted in the table.
as §4

H460 tumor cells [9] = assay: Cell Titer Glo overall cell growth, H460; format: cell-based, human
Procedure: B. Effect of varying concentrations of taxol, alone or in the presence of 5 μM OSI-906 on overall cell growth. Overall cell growth was determined by the Cell Titer Glo™ assay (Promega) and measured 72 hours after dosing. The dotted line represents the theoretical expectation for additivity and was calculated using the Bliss model for additivity. Measurement of Cell Proliferation: Cell proliferation was determined using the Cell Titer Glo assay (Promega Corporation, Madison, Wis.). Tumor cells were seeded at a density of 3000 cells per well in a 96-well plate. 24 hours after plating cells were dosed with varying concentrations of drug, either as a single agent or in combination. Using parallel replicate plates, the signal for Cell Titer Glo was determined 24 hours after dosing.

H322 tumor cells = assay: Caspase 3/7 Glo apoptosis assay, H322; format: cell-based, human
Procedure: as §3
Measurement of apoptosis: Induction of apoptosis as measured by increased Caspase 3/7 activity was determined using the Caspase 3/7 Glo assay (Promega Corporation, Madison, Wis.). Cell lines were seeded at a density of 3000 cells per well in a 96-well plate. 24 hours after plating cells were dosed with varying concentrations of drug, either as a single agent or in combination. The signal for Caspase 3/7 Glo was determined 24 hours after dosing. The caspase 3/7 activity was normalized to cell number per well, using a parallel plate treated with Cell Titer Glo (Promega Corporation, Madison, Wis.). Signal for each well was normalized using the following formula: Caspase 3/7 Glo luminescence units/Cell Titer Glo fraction of DMSO control. All graphs were generated using PRISM® software (Graphpad Software, San Diego, Calif.).

IGF-1R [10] = assay: In vivo pharmacodynamic study, pIGF-1R in H292 xenografts; settings: mice bearing H292 xenografts; 24 mg/kg paclitaxel; 24 hours
Procedure: B. Mice bearing H292 xenografts were treated with 24 mg/kg paclitaxel for 24 hours prior to harvesting tumors. Tumors were profiled for pIGF-1R levels using the RTK capture array, in duplicate. Four separate animals were used: Control (Ctrl) A1; Control (Ctrl) A2; Paclitaxel-treated A1; and Paclitaxel-treated A2.
Proteome profiler arrays housing 42 different RTKs were purchased from R&D systems (Minneapolis, Minn.) and processed according to the manufacturer's protocol. […] This array was used as an RTK capture assay for determining pIGF-1R levels.
Female athymic nude nu/nu CD-1 mice (6-8 wks, 22-29 g) were obtained from Charles River Laboratories (Wilmington, Mass.). Animals were allowed to acclimate for a minimum of one week prior to initiation of a study. Throughout the studies, animals were allowed sterile rodent chow and water ad libitum, and animals were maintained under specific pathogen free conditions.
NCI—H292 NSCLC tumor cells were harvested from cell culture flasks during exponential cell growth, washed twice with sterile PBS, counted and resuspended in PBS to a suitable concentration before s.c. implantation on the right flank of female nu/nu CD-1 mice. Tumors were established to 200+/−50 mm in size before randomization into treatment groups. Paclitaxel or cisplatin were administered at the indicated dose, and tumors from treated mice were harvested at 24 hours after dosing. […]

IGF-1R complex = assay: phosphorylation of the IGF-1R complex in MDA-1186 (data not shown); format: cell-based, human
Akt [11] = assay: Western blotting of Akt phosphorylation, H292; format: cell-based, human; settings: H292 in vitro; 30 nM paclitaxel; 2, 6, 24 hours
Procedure: H292 cells were treated with 30 nM paclitaxel (in the presence and absence of 3 μM OSI-906), and the phosphorylation state for Akt was determined by Western blotting.

IGF-1R [12] = assay: RTK capture array, pIGF-1R in H292 cells; format: cell-based, human
Procedure: Also shown is the effect of taxol (100 nM) on IGF-1R phosphorylation for H292 and H358 tumor cells. Phosphorylation was captured 24 hours after dosing with taxol and realized using the Proteome Profiler™ RTK capture Array (R & D Systems).
A. Effect of varying concentrations of taxol on pIGF-1R for H292 tumor cells. pIGF-1R was measured 24 hours after dosing and realized using the proteome profiler RTK capture array (R & D Systems).
A. H292 NSCLC tumor cells were treated with 30 nM paclitaxel for varying time points, alone or in the presence of 3 μM OSI-906. The phosphorylation of IGF-1R was determined by an RTK capture array, in duplicate (pIGF-1R=phosphorylated IGF-1R).
as §2

IGF-1R [13] = assay: RTK capture array, pIGF-1R in H358 cells; settings: taxol 100 nM, 24 hours

## CC1(O)CC(c2nc(-c3ccc4ccc(-c5ccccc5)nc4c3)c3c(N)nccn23)C1 (stereo not drawn) [Compound D, cis-3-[8-amino-1-(2-phenyl-quinolin-7-yl)-imidazo[1,5-a]pyrazin-3-yl]-1-methyl-cyclobutanol]
IR
  phosphorylation of IR, single agent: achieves inhibition for both pIR and pIGF-1R
IR; with Doxorubicin 500 nM
  phosphorylation of IR, combination with doxorubicin: blocked upon co-treatment with OSI-906
[1]; combination of doxorubicin and Compound D
  Akt phosphorylation (pAkt-S473), combination with doxorubicin: efficacious at inhibiting the increase in Akt phosphorylation provoked by doxorubicin
IGF-1R [2]
  phosphorylation of IGF-1R, single agent: achieves inhibition for both pIR and pIGF-1R
IGF-1R [2]; with Doxorubicin 500 nM
  phosphorylation of IGF-1R, combination with doxorubicin: blocked upon co-treatment with OSI-906
Erk; OSI-906 3 uM plus doxorubicin
  Erk activation state, co-treatment with doxorubicin: gain in activity can be inhibited upon co-treatment with OSI-906
Erk
  MAPK (Erk) pathway activity / activation state, single agent: achieves inhibition of both pathways
SK-ES-1 tumor cells [3]
  apoptosis (caspase 3/7 activity), combination with doxorubicin: synergistic promotion of apoptosis
H460 tumor cells [4]; OSI-906 alone
  apoptosis, single agent: fails to promote apoptosis or significantly inhibit cell growth
H460 tumor cells [4]; in the presence of 12 nM Taxol, listed as OSI-906
  apoptosis, combination with taxol: synergistic promotion of apoptosis and inhibition of cell survival; also recorded: increase the pro-apoptotic effects of doxorubicin
Akt [5]; OSI-906 3 uM plus doxorubicin
  Akt activation state, co-treatment with doxorubicin: gain in activity can be inhibited upon co-treatment with OSI-906
Akt [5]
  Akt pathway activity / activation state, single agent: achieves inhibition of both pathways
MDA-1186 tumor cells; OSI-906 alone
  apoptosis, single agent: did not achieve significant apoptosis as a single agent
MDA-1186 tumor cells; Taxol 10 nM, 24 and 48 hours, listed as OSI-906
  apoptosis, combination with taxol: promoted a dose dependent increase in apoptosis; also recorded: synergistic induction of apoptosis
H358 tumor cells
  synergy for the combination of OSI-906 and taxol (apoptosis): observed for H292, but not H358
A673 tumor cells [6]
  apoptosis (caspase 3/7 activity), combination with doxorubicin: synergistic promotion of apoptosis; also recorded: synergistic increase in doxorubicin-mediated apoptosis; also recorded: extent of cooperativity appears to be greater at higher concentrations of OSI-906, i.e. 3 μM, than that achieved maximally by a-IR3; also recorded: synergistic induction of apoptosis
SK-ES-1 tumor cells [7]
  overall cell growth, combination with doxorubicin: synergistic promotion of apoptosis and inhibition of overall cell growth
MDA-MB-231 cells; 1 μM doxorubicin and 0.3 μM compound D
  induction in apoptosis (caspase 3/7 activity), combination: about 3 fold
A673 tumor cells [8]
  overall cell growth, combination with doxorubicin: synergistic promotion of apoptosis and inhibition of overall cell growth
H292 tumor cells
  increase in apoptosis (apoptosis gain), combination with cisplatin: > 3 fold and > 2 fold
H460 tumor cells [9]; 5 μM OSI-906 with taxol, 72 hours, versus Bliss additivity
  overall cell growth, combination with taxol: greater than additive inhibition of overall cell growth
H460 tumor cells [9]; OSI-906 alone
  overall cell growth, single agent: fails to promote apoptosis or significantly inhibit cell growth
H322 tumor cells; OSI-906 30 nM-3 μM with 3 nM Taxol, 24 hours
  apoptosis gain, combination with taxol: > 2 fold
H322 tumor cells; paclitaxel and OSI-906
  induction of apoptosis, combination with paclitaxel: synergistic induction of apoptosis

## COc1cccc2c1C(=O)c1c(O)c3c(c(O)c1C2=O)C[C@@](O)(C(=O)CO)C[C@@H]3O[C@H]1C[C@H](N)[C@H](O)[C@H](C)O1 [doxorubicin, reference compound]
IR
  phosphorylation of IR, single agent: promotes an upregulation of the phosphorylation state for both IR and IGF-1R
[1]; 24 hours
  Akt phosphorylation (pAkt-S473), single agent: promotes an increase in Akt phosphorylation
IGF-1R [2]
  phosphorylation of IGF-1R, single agent: promotes an upregulation of the phosphorylation state for both IR and IGF-1R
Erk
  MAPK (Erk) pathway activity / activation state, single agent: increase in the activation states for both Akt and Erk
Akt [5]
  Akt pathway activity / activation state, single agent: increase in the activation states for both Akt and Erk
MDA-MB-231 cells; doxorubicin alone
  induction in apoptosis (caspase 3/7 activity), single agent: only a small induction in apoptosis

## CC(=O)O[C@H]1C(=O)[C@@]2(C)[C@H]([C@H](OC(=O)c3ccccc3)[C@]3(O)C[C@H](OC(=O)[C@H](O)[C@@H](NC(=O)c4ccccc4)c4ccccc4)C(C)=C1C3(C)C)[C@]1(OC(C)=O)CO[C@@H]1C[C@@H]2O [taxol, paclitaxel]
IGF-1R [10]
  pIGF-1R levels in tumors: upregulated
IGF-1R complex
  phosphorylation of the IGF-1R complex: promote phosphorylation of the IGF-1R complex
Akt [11]
  pAkt over time: modest increase in the Akt survival pathway, however this pathway is further driven upon prolonged 6 hour exposure to paclitaxel
IGF-1R [12]; H292, taxol 100 nM, 24 hours
  IGF-1R phosphorylation: promote an increase in IGF-1R phosphorylation
IGF-1R [12]; H292 in vitro, 30 nM paclitaxel, 2 and 6 hours
  pIGF-1R over time: time-dependent increase in pIGF-1R
IGF-1R [12]; Homo sapiens, NCI-H292, H292, 24 hours after dosing, read-out: EC50 for promoting phosphorylation of IGF-1R
  EC50: 10 nM
IGF-1R [13]
  IGF-1R phosphorylation: Only in H292 tumor cells did taxol promote an increase in IGF-1R phosphorylation
